Results taken from patent publication US11993594B2, “IRAK inhibitors and method for making and using” (Rigel Pharmaceuticals, Inc., priority 2016, dated 2024).
Like-named read-outs stand apart in the source and are kept apart here.

Columns and labels:
[1] = test system: LPS Induced IL23p19 in THP-1 Cells; experiment: LPS Induced IL23p19 in THP-1 Cells (with IFNγ Primed) Assay; assay type: cell-based, human; settings: THP-1 cells primed with IFNγ 50 ng/mL, LPS 1 ug/mL, 18 hours, 10 pt, read-out: IL23-p19 ELISA, THP1-IFNγ, LPS, 10 pt EC50
Excerpt: LPS Induced IL23p19 in THP-1 Cells (with IFNγ Primed) Assay
THP-1 Cells (ATCC, Cat #TIB-202), Dimethyl Sulfoxide (DMSO) (Sigma-Aldrich, Cat #D2650), RPMI 1640 (Cellgro, Cat #10-040-CM), Fetal Bovine Serum (Sigma, Cat #F4135), Albumin From Bovine Serum (BSA) (Sigma-Aldrich, Cat #A7906), LPS (Serotype K-235, Sigma, Product Number L 2143), IFNγ (Peprotech, Cat #300-02) Capture antibody: Human IL-23p19 ELISA (e-Bioscience, Cat. #14-7238-85), Detection antibody: Primary Mouse Biotinylated anti-human IL-12(p40/p70) (e-Bioscience, Cat. #13-7129-85), Secondary HRP-conjugated Streptavidin (R&D Systems, Cat #DY998), 1×PBST Washing Buffer (PBS-Tween tablet) (VWR International, Cat #80058-558), ELISA Blocking Buffer (PBS with 1% BSA), ELISA Dilution Buffer (PBS with 1% BSA), 384 Well Flat-Bottom, MaxiSorp Black Immuno Plates (Thermo Scientific, Cat #12-565-346), 384 Well Flat-Bottom, White Tissue Culture Plates (Thermo Scientific, Cat #12-565-343), Super Signal ELISA Pico Chemiluminescent Substrate (Thermo Scientific, Cat #37070), Cell Titer Glo reagent (Promega, Cat #G7573), Positive control, IKK2VI inhibitor (Calbiochem, Cat #401483), AquaMax 4000 plate washer (Molecular Devices), Luminometer, Wallac Victor2 1420 Multilabel Counter.
On day 1, 50K/well THP-1 cells were seeded and primed with IFNγ (50 ng/mL) in 384-well plates for about 18 hours in RPMI media with 10% FBS. On day 2, the compound was serially diluted in DMSO from 5 mM in 3-fold dilutions, and then diluted 1:125 in RPMI media with 10% FBS. 50 μL/well 2× compound was added to 50 μL/well THP-1 cells (with IFNγ primed) in duplicate in 384 well tissue culture plates. The cells were pre-incubated with compound for 1 hour at 37° C., 5% CO2 before addition of 10 μL/well 11×LPS to give a final concentration of 1 ug/mL LPS. Day 3, after stimulation for 18 hours at 37° C., 5% CO2, the assay plate was centrifuged and 70 μL/well supernatant was harvested. IL-23p19 protein in 70 µL/well of supernatant was measured by sandwich ELISA, and 25 μl/well Cell Titer Glo reagent was added to the remaining cells to measure compound toxicity.
Human IL-23p19 Sandwich ELISA:
Maxisorp immuno ELISA plates were pre-coated with 25 μL/well of anti-IL-23p19 capture antibody (2.5 ug/mL) in PBS overnight at room temperature. After washing with 1×PBST, the plates were blocked using 100 μL/well of 1% BSA in PBS for 2 hours at room temperature. The plates were washed three times with 1×PBST and 70 μL/well supernatant were added. The plates were incubated at room temperature for 2 hours with shaking and washed three times with 1×PBST. 25 μL/well of biotin labeled anti-IL-12(p40/p70) detection antibody (100 ng/mL) in PBS with 1% BSA was added and the plates were incubated at room temperature for 2 hours with shaking. After washing three times with 1×PBST, 25 μL/well of streptavidin-HRP (1:200) in PBS with 1% BSA was added and the plates were incubated at room temperature for 20 minutes with shaking. The plates were washed three times with 1×PBST and 25 μL/well of Super Signal ELISA Pico Chemiluminescent Substrate were added. The plates were read with a luminometer, and the chemiluminescence values were entered into Athena (Rigel) for curve fitting, EC50 calculation, and database storage. […]

[2] = test system: LPS induced IL-23 (p19/p40) in DC cells; experiment: IL23-p19 ELISA, dendritic (DC) cells differentiated from human PBMC, LPS stimulated; assay type: cell-based; settings: LPS 1 μg/ml, 18 hours, 10 pt
Experimental: Compound Screening Using DC Cells
Human PBMC cells (400 million) obtained from the vendor were transferred into a T-175 flask containing 15 ml RPMI media (10% FBS) and incubate for 2 hours at 37° C. After 2 hours, the media including floating cells was aspirated out carefully and 12 ml of fresh RPMI media (10% FBS) containing GMCSF (100 ng/ml) and IL4 (20 ng/ml) was added, and the flask was kept in a 37° C. incubator for 7 days.
After 3 days, fresh GMCSF (100 ng/ml) and IL4 (20 ng/ml) were added to the flask and the incubation continued. After 7 days, the fully differentiated cells were harvested by spinning down (1200 rpm/5 min) and aspirating the media. The cells were suspended in fresh RPMI media (10% FBS) containing 50 ng/ml IFNγ (1000 U/ml) and then plated (50K/well in 100 μl) onto a white clear bottom 96 well plate and left in a 37° C. incubator for 24 hours.
After 24 hours incubation, 100 μl of RPMI media was added containing 2× concentrated test compound per well to the above cell-culture media (final concentration becomes 1×) and the plates were pre-incubated for 1 hour at 37° C. before stimulating with LPS.
After 1 hour compound pre-incubation, 10 μl per well of 20× concentrated LPS solution in RPMI media was added to give a final concentration of 1 μg/ml. The mixture was shaken and incubated the plates at 37° C. for an additional 18 hours.
155 μl of the supernatant was harvested from each well carefully (without the tip touching the bottom of the well) and to the remaining 50 μl/well of the cell culture plate was added 50 μl of Cell Titer Glo reagent. The mixture was incubated for 1-2 minutes on a shaker and the plate was read for luminescence intensity to determine the compound cytotoxicity. The cell culture supernatant collected above was used to carry out IL23 ELISA (65 μl—Supernatant) and IL10 ELISA (90 μl—Supernatant) as described below.
Human IL-23 (p19/p40) ELISA Protocol (e-Biosciences)
To 10.5 ml PBS add 50 μl of anti-IL23 (p19) was added capture antibody (2.5 μg/ml). The mixture was mixed well and 100 μl of the coating solution was added to each well of the 96 well white plates from Pierce. The wells were covered and incubated overnight at 4° C.
The anti-IL23 (p19)-antibody-coated plates were washed 2× using TBST (use plate washer) and blocked using 200 μl of 0.5% Casein for 1.5 to 2 hours at room temperature with shaking.
The plates were washed 2× using TBST and the supernatant was transferred (65 μl/well) to the above pre-blocked/IL23(p19)-antibody-coated 96 well plate, and incubated at room temperature for 1.5 hours with shaking.
The plates were washed 4× using TBST (plate washer) and 100 μl/well detection antibody solution prepared from 2 μl of biotin labeled anti-IL-12 (p40/p70) antibody in 11 ml 1% BSA/PBS solution (1-5000 dilution) was added. The plates were incubated for 1 hour with shaking at Room temperature.
Again, the plates were washed 4× with TBST and 100 μl of HRP labeled Streptavidin (R&D Systems) solution (10 μl/10 ml 1% BSA solution) was added, and the plates were incubated at room temperature for another 45 minutes with shaking.
After 45 minutes, the plates were washed with TBST 4× and 100 μl/well Super Signal ELISA Pico Chemiluminescent Substrate from Pierce (3.5 ml A+3.5 ml B+3.5 ml MQ water) was added. The plates were shaken for 1-2 minutes then read on a plate reader. […]

SMILES	EC50 ([1]; Table 1)	EC50 ([1]; Table 2)	EC50 ([2]; Table 1, IFNγ 50 ng/ml)	EC50 ([2]; Table 2, IFNγ 50 ng/ml)	EC50 ([1]; Homo sapiens, Table 1)	EC50 ([1]; Table 3)	EC50 ([2]; Table 3, IFNγ 50 ng/ml)
O=C(Nc1cn([C@H]2CC[C@H](O)CC2)nc1-c1nc(F)ccc1F)c1coc(-c2cn[nH]c2)n1 [Compound I-11, N-(3-(3,6-difluoropyridin-2-yl)-1-((1r,4r)-4-hydroxycyclohexyl)-1H-pyrazol-4-yl)-2-(1H-pyrazol-4-yl)oxazole-4-carboxamide]	25.4 nM	25.4 nM	179 nM	179 nM	–	–	–
CCO[C@H]1CC[C@H](n2cc(NC(=O)c3coc(-c4cnn(COP(=O)(O)O)c4)n3)c(-c3nc(F)ccc3F)n2)CC1 [Compound I-12, (4-(4-((3-(3,6-difluoropyridin-2-yl)-1-((1r,4r)-4-ethoxycyclohexyl)-1H-pyrazol-4-yl)carbamoyl)oxazol-2-yl)-1H-pyrazol-1-yl)methyl dihydrogen phosphate]	177 nM	177 nM	2400 nM	2400 nM	–	–	–
O=C(Nc1cn(CCOCC(F)(F)F)nc1-c1ccccn1)c1coc(-c2cn[nH]c2)n1 [Compound I-15, 2-(1H-pyrazol-4-yl)-N-(3-(pyridin-2-yl)-1-(2-(2,2,2-trifluoroethoxy)ethyl)-1H-pyrazol-4-yl)oxazole-4-carboxamide]	–	–	451 nM	–	85.3 nM	–	–
O=C(Nc1cn(C2CCOCC2)nc1-c1ccccn1)c1coc(-c2cn[nH]c2)n1 [Compound I-20, 2-(1H-pyrazol-4-yl)-N-(3-(pyridin-2-yl)-1-(tetrahydro-2H-pyran-4-yl)-1H-pyrazol-4-yl)oxazole-4-carboxamide]	–	–	–	–	–	39.9 nM	135 nM
CCOCCn1cc(NC(=O)c2coc(-c3cn[nH]c3)n2)c(-c2ccccn2)n1 [Compound I-21, N-(1-(2-ethoxyethyl)-3-(pyridin-2-yl)-1H-pyrazol-4-yl)-2-(1H-pyrazol-4-yl)oxazole-4-carboxamide]	–	–	–	–	–	243 nM	170 nM

More lines, in order of falling EC50 ([2]; Table 1, IFNγ 50 ng/ml), values ahead:

EC50 ([1]; Table 1)	EC50 ([1]; Table 2)	EC50 ([2]; Table 1, IFNγ 50 ng/ml)	EC50 ([2]; Table 2, IFNγ 50 ng/ml)	EC50 ([1]; Homo sapiens, Table 1)	EC50 ([1]; Table 3)	EC50 ([2]; Table 3, IFNγ 50 ng/ml)	SMILES
22.8 nM	22.8 nM	172 nM	172 nM	–	–	–	CCO[C@H]1CC[C@H](n2cc(NC(=O)c3coc(-c4cn[nH]c4)n3)c(-c3nc(F)ccc3F)n2)CC1 [Compound I-9, N-(3-(3,6-difluoropyridin-2-yl)-1-((1r,4r)-4-ethoxycyclohexyl)-1H-pyrazol-4-yl)-2-(1H-pyrazol-4-yl)oxazole-4-carboxamide]
34.1 nM	34.1 nM	143 nM	143 nM	–	–	–	CCO[C@H]1CC[C@H](n2cc(NC(=O)c3coc(-c4cn[nH]c4)n3)c(-c3ncc(F)cc3F)n2)CC1 [Compound I-13, N-(3-(3,5-difluoropyridin-2-yl)-1-((1r,4r)-4-ethoxycyclohexyl)-1H-pyrazol-4-yl)-2-(1H-pyrazol-4-yl)oxazole-4-carboxamide]
69.9 nM	69.9 nM	30.9 nM	30.9 nM	–	–	–	CCO[C@H]1C[C@@H](n2cc(NC(=O)c3coc(-c4cn[nH]c4)n3)c(-c3nc(F)ccc3F)n2)C1 [Compound I-10, N-(3-(3,6-difluoropyridin-2-yl)-1-((1s,3s)-3-ethoxycyclobutyl)-1H-pyrazol-4-yl)-2-(1H-pyrazol-4-yl)oxazole-4-carboxamide]
83.3 nM	83.3 nM	25.6 nM	25.6 nM	–	–	–	CCOC1CCC(n2cc(NC(=O)c3coc(-c4cnn(COP(=O)(O)O)c4)n3)c(-c3cnccn3)n2)CC1 (stereo not shown) [Compound I-18, sodium (4-(4-((1-((1r,4r)-4-ethoxycyclohexyl)-3-(pyrazin-2-yl)-1H-pyrazol-4-yl)carbamoyl)oxazol-2-yl)-1H-pyrazol-1-yl)methyl phosphate]
60.3 nM	60.3 nM	15.6 nM	15.6 nM	–	–	–	CCO[C@H]1CC[C@H](n2cc(NC(=O)c3coc(-c4cnn(COP(=O)(O)O)c4)n3)c(-c3cnccn3)n2)CC1 [Compound I-17, (4-(4-((1-((1r,4r)-4-ethoxycyclohexyl)-3-(pyrazin-2-yl)-1H-pyrazol-4-yl)carbamoyl)oxazol-2-yl)-1H-pyrazol-1-yl)methyl dihydrogen phosphate]
